# Measurements from patent US20090018194A1, “Use of antimicrobial agents derived from alliaceous plants for the prevention and control of crop diseases, post-harvest rot and as environmental disinifectant products” (DMC Research Center, S.L., priority 2007, published 2009).
# Legend:
# Penicillium expansum = experiment: reduction of spores in suspension in absence or presence of organic matter; assay type: cell-based; conditions: PTSO 2000 ppm 1 min.
# Excerpt: (§1) In addition, under the real conditions of a disinfecting bath for boxes, crates and containers, as well as for the disinfection of rooms and work surfaces, organic material (soil residue, rotten fruit, leaves etc.) is generally present, which can reduce the action of the disinfectant agent. Therefore, the effectiveness of PTS and PTSO has also been assessed in the presence of organic matter on two pathogens that cause post-harvest rot of stone fruit (Penicillium expansum) and citrus fruit (Penicillium digitatum).
# Penicillium digitatum [1] = experiment: as above; assay type: cell-based; conditions: PTSO 2000 ppm 1 min.
# Excerpt: as §1
# R. stolonifer = experiment: disinfection of artificially contaminated containers by drencher; set-up: species or system Rhizopus stolonifer; conditions: drencher 30 seconds
# Protocol: (§2) A test of the disinfection of containers (fruit boxes and crates) was conducted in which a level of artificial contamination was created by means of controlled inoculation, with the objective of determining optimum doses of application to achieve a satisfactory disinfection. First the containers (made of wood and plastic) were disinfected with sodium hypochlorite, and they were then artificially contaminated via controlled inoculations with different fungi characteristic of the fruit and vegetable processing sector. For this purpose, isolated wild strains were used which, after sporulation, were collected to create a suspension of mixed spores of various fungi (Penicillium expansum, Penicillium italicum, Penicillium digitarum and Alternario alternata) and, separately in simultaneous tests (as a result of its higher rate of growth and its invasive character), a suspension of Rhizopus stolonifer. […] After this fogging, the containers were allowed to dry. The containers were then sampled to determine the level of initial contamination achieved (by means of contact plates containing Rose Bengal agar). The containers were then treated in a pilot line […]. The hold time of the containers under the showers was 30 seconds, and the test doses were 750 ppm and 1050 ppm for PTS and 2000 ppm and 5000 ppm in the case of PTSO. After exiting the showers, the treated containers were allowed to dry, and were again sampled using contact plates with Rose Bengal agar to determine the final level of contamination. The sampling unit was 3 containers and 3 plates per repetition.
# Penicillium digitatum [2] = experiment: post-harvest rotting of inoculated oranges (Navelina), immersion treatment; assay type: in vivo; conditions: title: treated with PTSO
# Protocol: (§3) This example considers the effectiveness of the active natural principles PTS and PTSO in two different doses for the control of post-harvest rotting of oranges ([…] variety), caused by controlled artificial inoculation with the fungi Penicillium digitatum, Penicillium expansum, Phytophthora citrophthora and Geotrichum candidum, the principal pathogens of this fruit. The inoculation of the oranges was carried out with suspensions of spores of the different wild fungal strains selected, according to the methodology described below. The first step was the isolation and identification of the fungal strains used in the study. The strains of filamentous fungi used in these tests (Penicillium digitatum, Penicillium italicum and Phytophthora citrophthora) were isolated from oranges affected by rot. In these isolation processes, it was not possible to detect any strain belonging to Geotrichum candidum, as a result of which it was necessary to obtain the latter substance from the Spanish Collection of Standard Cultures, where it is identified by reference CECT 1102. […] To promote the implantation of the inoculum of Geotrichum candidum, 200 ppm of cyclohexamide was added to the inoculum prior to its inoculation. […] The assessment of the effectiveness of PTS and PTSO comprised counting of the number of fruits affected by rot in the inoculated zone, to determine the percentage of fruit affected for each treatment and fungus inoculated, and expressing this effectiveness as a percentage of reduction of the affected fruit.
# Penicillium italicum = experiment: as above; assay type: in vivo; conditions: 4 days at 20° C., title: treated with PTSO
# Protocol: as §3
# [3] = tested on: Pseudomonas aeruginosa ATCC 9027; experiment: agar diffusion test with impregnated cellulose discs; assay type: cell-based; conditions: incl. 6 mm disc
# [4] = tested on: Penicillium solitum Wild strain; experiment: as above; assay type: cell-based; conditions: incl. 6 mm disc
# [5] = tested on: Escherichia coli ATCC 25922; experiment: as above; assay type: cell-based; conditions: incl. 6 mm disc
# Rhizopus stolonifer = experiment: disinfection of containers stored inside the rooms by fogging
# [6] = tested on: Bacillus cereus ATCC 10876; experiment: agar diffusion test with impregnated cellulose discs; assay type: cell-based; conditions: incl. 6 mm disc
# [7] = tested on: Fungi mixture (P. expansum, P. italicum, P. digitatum and A. Alternata); experiment: disinfection of artificially contaminated containers by drencher; conditions: drencher 30 seconds
# Protocol: as §2
# [8] = tested on: Fungi mixture (P. expansum, P. italicum, P. digitatum and A. Alternata); experiment: disinfection of containers stored inside the rooms by fogging
# [9] = tested on: Ralstonia solanacearum Strain GM1000; assay type: cell-based; conditions: in vitro tests
# [10] = organic matter Absence, 0 hours
# [11] = organic matter Absence, 2 hours
# [12] = organic matter Absence, 3 hours
# [13] = organic matter Presence, 0 hours
# [14] = organic matter Presence, 1 hour
# [15] = organic matter Presence, 2 hours
# [16] = organic matter Presence, 3 hours
compound,measurement,setting,value
"CCCSS(=O)(=O)CCC [PTSO, Propyl Propyl Thiosulfonate]",Reduction of the population (%),Penicillium expansum; [10],100%
same,Reduction of the population (%),"Penicillium expansum; organic matter Absence, 1 hour",100%
same,Reduction of the population (%),Penicillium expansum; [11],100%
same,Reduction of the population (%),Penicillium expansum; [12],100%
same,Reduction of the population (%),Penicillium expansum; [13],100%
same,Reduction of the population (%),Penicillium expansum; [14],100%
same,Reduction of the population (%),Penicillium expansum; [15],100%
same,Reduction of the population (%),Penicillium expansum; [16],85%
same,Reduction of the population (%),Penicillium digitatum [1]; [10],100%
same,Reduction of the population (%),"Penicillium digitatum [1]; organic matter Absence, 1 hour",100%
same,Reduction of the population (%),Penicillium digitatum [1]; [11],100%
same,Reduction of the population (%),Penicillium digitatum [1]; [12],100%
same,Reduction of the population (%),Penicillium digitatum [1]; [13],100%
same,Reduction of the population (%),Penicillium digitatum [1]; [14],100%
same,Reduction of the population (%),Penicillium digitatum [1]; [15],100%
same,Reduction of the population (%),Penicillium digitatum [1]; [16],100%
same,Reduction of the population (%),"R. stolonifer; 2000 ppm, Plastic container",100%
same,Reduction of the population (%),"R. stolonifer; 2000 ppm, Wood container",96%
same,Reduction of the population (%),"R. stolonifer; 5000 ppm, Plastic container",100%
same,Reduction of the population (%),"R. stolonifer; 5000 ppm, Wood container",98%
same,% Reduction,"Penicillium digitatum [2]; 1600 ppm, 5 days of treatment at 20° C.",72%
same,% Reduction,"Penicillium digitatum [2]; 1600 ppm, 7 days of treatment at 20° C.",40%
same,% Reduction,"Penicillium digitatum [2]; 2500 ppm, 5 days of treatment at 20° C.",85%
same,% Reduction,"Penicillium digitatum [2]; 2500 ppm, 7 days of treatment at 20° C.",57%
same,% Reduction,Penicillium italicum; 1600 ppm,80%
same,% Reduction,Penicillium italicum; 2500 ppm,85%
same,diameter of the microbial inhibition halo,[3]; 60 ppm,6.5 mm
same,diameter of the microbial inhibition halo,[3]; 125 ppm,8 mm
same,diameter of the microbial inhibition halo,[3]; 250 ppm,9 mm
same,diameter of the microbial inhibition halo,[3]; 500 ppm,10 mm
same,diameter of the microbial inhibition halo,[3]; 1000 ppm,12 mm
same,diameter of the microbial inhibition halo,[4]; 60 ppm,0 mm
same,diameter of the microbial inhibition halo,[4]; 125 ppm,12 mm
same,diameter of the microbial inhibition halo,[4]; 250 ppm,20 mm
same,diameter of the microbial inhibition halo,[4]; 500 ppm,30 mm
same,diameter of the microbial inhibition halo,[4]; 1000 ppm,40 mm
same,diameter of the microbial inhibition halo,[5]; 60 ppm,18 mm
same,diameter of the microbial inhibition halo,[5]; 125 ppm,19 mm
same,diameter of the microbial inhibition halo,[5]; 250 ppm,26 mm
same,diameter of the microbial inhibition halo,[5]; 500 ppm,27 mm
same,diameter of the microbial inhibition halo,[5]; 1000 ppm,29 mm
same,Reduction of the population (%),"Rhizopus stolonifer; 2000 ppm, Plastic container",77%
same,Reduction of the population (%),"Rhizopus stolonifer; 2000 ppm, Wood container",78%
same,Reduction of the population (%),"Rhizopus stolonifer; 5000 ppm, Plastic container",71%
same,Reduction of the population (%),"Rhizopus stolonifer; 5000 ppm, Wood container",56%
same,diameter of the microbial inhibition halo,[6]; 60 ppm,25 mm
same,diameter of the microbial inhibition halo,[6]; 125 ppm,35 mm
same,diameter of the microbial inhibition halo,[6]; 250 ppm,45 mm
same,diameter of the microbial inhibition halo,[6]; 500 ppm,47 mm
same,diameter of the microbial inhibition halo,[6]; 1000 ppm,49 mm
same,Reduction of the population (%),"[7]; 2000 ppm, Plastic container",93%
same,Reduction of the population (%),"[7]; 2000 ppm, Wood container",98%
same,Reduction of the population (%),"[7]; 5000 ppm, Plastic container",93%
same,Reduction of the population (%),"[7]; 5000 ppm, Wood container",99%
same,Reduction of the population (%),"[8]; 2000 ppm, Plastic container",94%
same,Reduction of the population (%),"[8]; 2000 ppm, Wood container",67%
same,Reduction of the population (%),"[8]; 5000 ppm, Plastic container",92%
same,Reduction of the population (%),"[8]; 5000 ppm, Wood container",70%
same,effectiveness of the application (in words),[9],highly effective
